Test results: US12312359B2 (Vitae Pharmaceuticals, LLC, priority 2016, dated 2025)

Columns and labels:
[1] = tested on: human acute monocytic leukemia cell line MV-4-11; assay: Assay 2: cell proliferation assay (ATP quantitation, CellTiter-Glo), MV-4-11; type: cell-based; details: MV-4-11 cells
Procedure, shortened: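 MV-4-11 cells, 1.67×10^4 per well in medium with 10% FBS, were exposed to compound for 72 h at 37° C., 5% CO2; HL-60 cells served as toxicity control. Proliferation read as ATP content by CellTiter-Glo luminescence.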

[2] = molecular target: T1, biotinylated wild-type menin and MLL-AF9 fusion protein (menin/MLL binding) (Homo sapiens, UniProt O00255); assay: Assay 1: menin/MLL binding AlphaLISA assay, wild-type menin; details: Table 30; column head does not say wild-type or mutated menin
T1 construct: made in house; host or cells: menin: E. coli; MLL-AF9-FLAG: HEK293 cells, used as cleared lysate
T1 sequence (O00255 1-610): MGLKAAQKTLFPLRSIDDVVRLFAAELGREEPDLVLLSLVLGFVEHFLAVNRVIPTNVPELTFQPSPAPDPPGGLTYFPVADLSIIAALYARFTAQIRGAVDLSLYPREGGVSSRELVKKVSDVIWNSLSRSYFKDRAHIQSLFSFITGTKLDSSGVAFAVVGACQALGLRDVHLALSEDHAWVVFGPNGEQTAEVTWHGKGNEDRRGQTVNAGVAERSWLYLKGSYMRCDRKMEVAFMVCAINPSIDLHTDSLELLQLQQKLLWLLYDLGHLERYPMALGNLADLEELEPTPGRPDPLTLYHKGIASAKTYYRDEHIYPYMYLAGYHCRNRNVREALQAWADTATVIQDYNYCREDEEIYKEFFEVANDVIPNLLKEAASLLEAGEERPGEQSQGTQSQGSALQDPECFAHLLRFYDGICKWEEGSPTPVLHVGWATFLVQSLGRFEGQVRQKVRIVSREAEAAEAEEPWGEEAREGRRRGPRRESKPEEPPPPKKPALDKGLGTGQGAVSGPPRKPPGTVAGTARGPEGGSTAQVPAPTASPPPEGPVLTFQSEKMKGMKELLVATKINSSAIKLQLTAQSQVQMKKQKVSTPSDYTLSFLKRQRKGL
Procedure, shortened: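 Compound was preincubated 30 min at room temperature with biotinylated menin (5 nM) and MLL-AF9-FLAG lysate from HEK293 cells, pH 7.4 buffer with 5% DMSO and DTT. Bead-based Alpha signal after 60 min with streptavidin donor and anti-FLAG acceptor beads; four-parameter logistic fit gave IC50.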

Row | EC50 ([1]; Homo sapiens, MV4-11, 72 h) [nM] | IC50 [2] [nM] | EC50 ([1]; 72 h) [nM] | Molecule
1 | 100 to 1000 | < 100 |  | CCN(C(=O)C(C)C)c1cc(F)ccc1Oc1cncnc1N1CC2(CCN(CC(C)C)C2)C1 [Example 136, N-ethyl-N-(5-fluoro-2-((4-(6-isobutyl-2,6-diazaspiro[3.4]octan-2-yl)pyrimidin-5-yl)oxy)phenyl)iso-butyramide]
2 | < 100 | < 100 |  | COCCn1c(=O)[nH]c2cc(CN3CCC4(CCN(c5ncncc5Oc5ccc(F)cc5-c5cncnc5C(C)C)C4)C3)ccc21 (stereo not drawn) [Example 131, 5-((7-(5-(4-fluoro-2-(4-isopropylpyrimidin-5-yl)phenoxy)pyrimidin-4-yl)-2,7-diazaspiro[4.4]nonan-2-yl)methyl)-1-(2-methoxyethyl)-1,3-dihydro-2H-benzo[d]imidazol-2-one]
3 | ≥ 1000 | < 100 |  | CC(C)N(C)Cc1cc(F)ccc1Oc1cncnc1N1CCC2(CCN(Cc3ccc4[nH]c(=O)[nH]c4c3)C2)C1 (stereo not drawn) [Example 135, 5-((7-(5-(4-fluoro-2-((isopropyl(methyl)amino)methyl)phenoxy)pyrimidin-4-yl)-2,7-diazaspiro[4.4]nonan-2-yl)methyl)-1,3-dihydro-2H-benzo[d]imidazol-2-one]
4 |  | < 100 | < 100 | CC(C)N(C)C(=O)c1cc(F)ccc1Oc1cncnc1N1CCC2(CCN(Cc3ccc4[nH]c(=O)[nH]c4c3)C2)C1 (single isomer, unassigned) [Example 183B, 5-fluoro-N-isopropyl-N-methyl-2-((4-(7-((2-oxo-2,3-dihydro-1H-benzo[d]imidazol-5-yl)methyl)-2,7-diazaspiro[4.4]nonan-2-yl)pyrimidin-5-yl)oxy)benzamide]
5 | < 100 | < 100 |  | Cn1c(-c2cc(F)ccc2Oc2cncnc2N2CC3(CCN(C[C@H]4CC[C@H](NC(=O)C(F)(F)F)CC4)CC3)C2)c(C2CC2)ccc1=O [Example 79, N-((1r,4r)-4-((2-(5-(2-(3-cyclopropyl-1-methyl-6-oxo-1,6-dihydropyridin-2-yl)-4-fluorophenoxy)pyrimidin-4-yl)-2,7-diazaspiro[3.5]nonan-7-yl)methyl)cyclohexyl)-2,2,2-trifluoroacetamide]
6 | ≥ 1000 | 100 to 1000 |  | NS(=O)(=O)c1ccc2c(c1)CC(C(=O)N1CC3(C1)CN(c1ncncc1Oc1ccc(F)cc1Cl)C3)C2 (stereo not drawn) [Example 40, 2-(6-(5-(2-chloro-4-fluorophenoxy)pyrimidin-4-yl)-2,6-diazaspiro[3.3]heptane-2-carbonyl)-2,3-dihydro-1H-indene-5-sulfonamide]
7 | < 100 | < 100 |  | CCN(C(=O)c1cc(F)ccc1Oc1cncnc1N1CCC2(CCN(Cc3ccc4[nH]c(=O)[nH]c4c3)C2)C1)C(C)C (racemic) [Example 2, N-ethyl-5-fluoro-N-isopropyl-2-((4-(7-((2-oxo-2,3-dihydro-1H-benzo[d]imidazol-5-yl)methyl)-2,7-diazaspiro[4.4]nonan-2-yl)pyrimidin-5-yl)oxy)benzamide]
8 | 100 to 1000 | < 100 |  | CCN(C(=O)C(C)C)c1cc(F)ccc1Oc1cncnc1N1CC2(CCN(CC3CCC(F)(F)CC3)C2)C1 [Example 137, N-(2-((4-(6-((4,4-difluorocyclohexyl)methyl)-2,6-diazaspiro[3.4]octan-2-yl)pyrimidin-5-yl)oxy)-5-fluorophenyl)-N-ethylisobutyramide]
9 | < 100 | < 100 |  | CCN(C(=O)c1cc(F)ccc1Oc1cncnc1N1CCC2(CCN(Cc3ccc4c(c3)[nH]c(=O)n4CCO)C2)C1)C(C)C (stereo not drawn) [Example 4, N-ethyl-5-fluoro-2-((4-(7-((1-(2-hydroxyethyl)-2-oxo-2,3-dihydro-1H-benzo[d]imidazol-5-yl)methyl)-2,7-diazaspiro[4.4]nonan-2-yl)pyrimidin-5-yl)oxy)-N-isopropylbenzamide]
10 | 100 to 1000 | < 100 |  | COc1ccc(CC(=O)N2CC3(C2)CN(c2ncncc2Oc2ccc(F)cc2-c2cncnc2C(C)C)C3)cn1 [Example 132, 1-(6-(5-(4-fluoro-2-(4-isopropylpyrimidin-5-yl)phenoxy)pyrimidin-4-yl)-2,6-diazaspiro[3.3]heptan-2-yl)-2-(6-methoxypyridin-3-yl)ethan-1-one]
11 | 100 to 1000 | < 100 |  | CC(C)c1ccccc1-c1cc(F)ccc1Oc1cncnc1N1CCC2(CCN(C[C@H]3CC[C@H](NC(=O)OC(C)(C)C)CC3)C2)C1 (stereo partly drawn) [Example 220, tert-butyl ((1r,4r)-4-((7-(5-((5-fluoro-2′-isopropyl-[1,1′-biphenyl]-2-yl)oxy)pyrimidin-4-yl)-2,7-diazaspiro[4.4]nonan-2-yl)methyl)cyclohexyl) carbamate]
12 | < 100 | < 100 |  | CC(C)n1nc(C(F)(F)F)cc1-c1cc(F)ccc1Oc1cncnc1N1CCC2(CCN(Cc3ccc4[nH]c(=O)[nH]c4c3)C2)C1 (stereo not drawn) [Example 217, 5-((7-(5-(4-fluoro-2-(1-isopropyl-3-(trifluoromethyl)-1H-pyrazol-5-yl)phenoxy)pyrimidin-4-yl)-2,7-diazaspiro[4.4]nonan-2-yl)methyl)-1,3-dihydro-2H-benzo[d]imidazol-2-one]
13 | 100 to 1000 | < 100 |  | N#Cc1ccc(-c2cc(F)ccc2Oc2cncnc2N2CC3(CN(CC4(O)CCOCC4)C3)C2)c(C2CC2)c1 [Example 214, 2-cyclopropyl-5′-fluoro-2′-((4-(6-((4-hydroxytetrahydro-2H-pyran-4-yl)methyl)-2,6-diazaspiro[3.3]heptan-2-yl)pyrimidin-5-yl)oxy)-[1,1′-biphenyl]-4-carbonitrile]
14 |  | < 100 | 100 to 1000 | 5-((7-(5-(4-fluoro-2-(3-fluoro-3-methylbutyl)phenoxy) pyrimidin-4-yl)-2,7-diazaspiro[4.4]nonan-2-yl)methyl)-1H-benzo[d]imidazol-2(3H)-one [Example 35]
15 |  | < 100 | ≥ 1000 | CC(C)N(C(=O)c1cc(F)ccc1Oc1cncnc1N1CCC2(CC(Cc3ccc(F)cc3)N(CCO)C2)C1)C(C)C (single isomer, unassigned) [Example 26B, 5-fluoro-2-((4-(8-(4-fluorobenzyl)-7-(2-hydroxyethyl)-2,7-diazaspiro[4.4]nonan-2-yl)pyrimidin-5-yl)oxy)-N,N-diisopropylbenzamide]
16 | < 100 | < 100 |  | CC(C)N(C(=O)c1cc(F)ccc1Oc1cncnc1N1CC2(CCN(C[C@H]3CC[C@H](NC(=O)OC(C)(C)C)CC3)CC2)C1)C(C)C [Example 99A, tert-butyl ((1r,4r)-4-((2-(5-(2-(diisopropylcarbamoyl)-4-fluorophenoxy)pyrimidin-4-yl)-2,7-diazaspiro[3.5]nonan-7-yl)methyl)cyclohexyl)carbamate]
17 | 100 to 1000 | < 100 |  | N#Cc1ccc(-c2cc(F)ccc2Oc2cncnc2N2CC3(CN(CC4CCOCC4)C3)C2)c(C2CC2)c1 [Example 215, 2-cyclopropyl-5′-fluoro-2′-((4-(6-((tetrahydro-2H-pyran-4-yl)methyl)-2,6-diazaspiro[3.3]heptan-2-yl)pyrimidin-5-yl)oxy)-[1,1′-biphenyl]-4-carbonitrile]
18 | < 100 | < 100 |  | CC(C)c1ncncc1-c1cc(F)ccc1Oc1cnccc1N1CCC2(CCN(Cc3ccc4[nH]c(=O)[nH]c4c3)C2)C1 (stereo not drawn) [Example 28, 5-((7-(3-(4-fluoro-2-(4-isopropylpyrimidin-5-yl)phenoxy)pyridin-4-yl)-2,7-diazaspiro[4.4]nonan-2-yl)methyl)-1,3-dihydro-2H-benzo[d]imidazol-2-one]
